The values below come from ChEMBL document CHEMBL5055685, “Discovery of the First Potent IDO1/IDO2 Dual Inhibitors: A Promising Strategy for Cancer Immunotherapy” (J Med Chem, 2021).

As a reminder, the inhibition is how much of the control response was suppressed. By pIC50 is commonly meant −log10 of the IC50, conventionally taken in molar units.

For assay [1], the target named is T1, Indoleamine 2,3-dioxygenase 2 (Homo sapiens) (UniProt Q6ZQW0).
T1 sequence (whole entry): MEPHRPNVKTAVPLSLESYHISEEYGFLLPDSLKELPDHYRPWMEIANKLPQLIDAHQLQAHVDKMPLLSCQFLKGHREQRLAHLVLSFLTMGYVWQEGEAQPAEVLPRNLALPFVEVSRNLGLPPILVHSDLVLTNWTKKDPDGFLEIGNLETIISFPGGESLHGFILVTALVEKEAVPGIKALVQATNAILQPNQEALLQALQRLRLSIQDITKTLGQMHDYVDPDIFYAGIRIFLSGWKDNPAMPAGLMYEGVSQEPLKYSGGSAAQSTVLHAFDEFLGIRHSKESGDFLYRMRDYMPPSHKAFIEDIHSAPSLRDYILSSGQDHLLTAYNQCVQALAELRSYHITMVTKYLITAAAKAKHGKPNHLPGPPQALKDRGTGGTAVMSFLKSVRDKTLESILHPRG
As to the kind of experiment: Inhibition of IDO2 (unknown origin) assessed as reduction in kynurenine formation using L-tryptophan as substrate by methylene blue reagent based assay relative to control. Also on record: concentration or dose not given beside the values. Particulars: concentration not given here.

Assay [2] addresses T2, Indoleamine 2,3-dioxygenase 1 (Homo sapiens, UniProt P14902). The assay is described as follows: Inhibition of IDO1 (unknown origin) assessed as reduction in kynurenine formation using L-tryptophan as substrate by methylene blue reagent based assay relative to control. Further details: concentration or dose not given beside the values. The settings on record: concentration not given here.
Target sequence in this assay (P14902 whole entry, looked up): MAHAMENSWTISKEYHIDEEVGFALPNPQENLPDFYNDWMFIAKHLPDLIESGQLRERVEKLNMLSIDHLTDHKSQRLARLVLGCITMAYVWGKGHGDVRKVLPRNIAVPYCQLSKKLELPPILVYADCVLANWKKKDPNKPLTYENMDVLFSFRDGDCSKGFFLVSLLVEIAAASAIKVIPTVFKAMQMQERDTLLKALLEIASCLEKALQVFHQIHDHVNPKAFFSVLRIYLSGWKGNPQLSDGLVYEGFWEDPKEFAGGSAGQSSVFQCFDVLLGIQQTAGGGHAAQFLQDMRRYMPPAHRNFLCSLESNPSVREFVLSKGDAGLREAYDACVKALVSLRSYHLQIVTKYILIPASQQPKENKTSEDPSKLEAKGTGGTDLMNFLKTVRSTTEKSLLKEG

Assay [3] addresses T3, Indoleamine 2,3-dioxygenase 2 (Homo sapiens, UniProt Q6ZQW0).
T3 sequence (Q6ZQW0 whole entry): T1 sequence (whole entry)
As to the kind of experiment: Inhibition of IDO2 (unknown origin) assessed as reduction in kynurenine formation using L-tryptophan as substrate by methylene blue reagent based assay.

The target of assay [4] is T2, Indoleamine 2,3-dioxygenase 1. The assay is described as follows: Inhibition of IDO1 (unknown origin) assessed as reduction in kynurenine formation using L-tryptophan as substrate by methylene blue reagent based assay.
Target sequence in this assay (P14902 whole entry): as the sequence (P14902 whole entry, looked up) above
Assay [5] shares this target. The assay is described as follows: Inhibition of IDO1 in IFNgamma-stimulated human HeLa cells assessed as reduction in kynurenine formation measured after 48 hrs by spectrophotometry.
Target sequence in this assay (P14902 whole entry): as the sequence (P14902 whole entry, looked up) above

pIC50: −log10 of the molar value.

In the case of `Cc1ccc(-c2cn(CCNc3nonc3/C(=N/O)Nc3ccc(F)c(Br)c3)nn2)cc1`, the inhibition in assay [1] was 14%; in assay [2] it was 12%.
Regarding `Nc1cccc(-c2cn(CCNc3nonc3/C(=N/O)Nc3ccc(F)c(Br)c3)nn2)c1`, the inhibition stood at 12% in assay [1] and 7% in assay [2].
For the compound `CC(C)(OCCO)c1cn(CCNc2nonc2/C(=N/O)Nc2ccc(F)c(Br)c2)nn1`, the pIC50 was 5.93 in assay [3] and 6.75 in assay [4].
In the case of `O/N=C(\Nc1ccc(F)c(Br)c1)c1nonc1NCCn1cc(-c2ccccc2)nn1`, the inhibition worked out at 4% in assay [1] and 17% in assay [2].
Taken in the same sequence, the figures for `COCc1cn(CCNc2nonc2/C(=N/O)Nc2ccc(F)c(Br)c2)nn1` were 7% and 20.5%.
As for `CCCCc1cn(CCNc2nonc2/C(=N/O)Nc2ccc(F)c(Br)c2)nn1`, the pIC50 in assay [3] is 6.08; in assay [4], 6.90.
On to `CCOc1cc(CNC(=O)c2ncoc2-c2ccc(OC)cc2)cc(OCC)c1OCC`, for which the pIC50 in assay [5] is 8.20.
`CCC(C)(O)c1cn(CCNc2nonc2/C(=N/O)Nc2ccc(F)c(Br)c2)nn1` (stereo unspecified): the pIC50 in assay [3] is 6.02; in assay [4], 7.28.
With `OCc1cn(CCNc2nonc2/C(=N/O)Nc2ccc(F)c(Br)c2)nn1`, the pIC50 was 6.10 in assay [3] and 7.11 in assay [4].
In the case of `OCCc1cn(CCNc2nonc2/C(=N/O)Nc2ccc(F)c(Br)c2)nn1`, the negative-log IC50 (pIC50) in assay [3] was 5.93; in assay [4] it was 6.61.
Taken in the same sequence, the figures for `OCCCc1cn(CCNc2nonc2/C(=N/O)Nc2ccc(F)c(Br)c2)nn1` were 6.02 and 7.01.
